Values of other authors as cited in patent publication US20150104511A1, “Pharmaceutical Antiretroviral Combinations Comprising Lamivudine, Festinavir and Nevirapine” (Cipla Limited, priority 2012, published 2015).

Key:
[1] = biological target: RT (Reverse Transcriptase) (Human immunodeficiency virus type 1 group M subtype B, UniProt P04585); settings: compared to d4T-triphosphate
mtDNA pol γ = biological target: T1, mtDNA pol γ (Homo sapiens, UniProt P54098); settings: compared to d4T-triphosphate
T1 sequence (P54098 1-1239): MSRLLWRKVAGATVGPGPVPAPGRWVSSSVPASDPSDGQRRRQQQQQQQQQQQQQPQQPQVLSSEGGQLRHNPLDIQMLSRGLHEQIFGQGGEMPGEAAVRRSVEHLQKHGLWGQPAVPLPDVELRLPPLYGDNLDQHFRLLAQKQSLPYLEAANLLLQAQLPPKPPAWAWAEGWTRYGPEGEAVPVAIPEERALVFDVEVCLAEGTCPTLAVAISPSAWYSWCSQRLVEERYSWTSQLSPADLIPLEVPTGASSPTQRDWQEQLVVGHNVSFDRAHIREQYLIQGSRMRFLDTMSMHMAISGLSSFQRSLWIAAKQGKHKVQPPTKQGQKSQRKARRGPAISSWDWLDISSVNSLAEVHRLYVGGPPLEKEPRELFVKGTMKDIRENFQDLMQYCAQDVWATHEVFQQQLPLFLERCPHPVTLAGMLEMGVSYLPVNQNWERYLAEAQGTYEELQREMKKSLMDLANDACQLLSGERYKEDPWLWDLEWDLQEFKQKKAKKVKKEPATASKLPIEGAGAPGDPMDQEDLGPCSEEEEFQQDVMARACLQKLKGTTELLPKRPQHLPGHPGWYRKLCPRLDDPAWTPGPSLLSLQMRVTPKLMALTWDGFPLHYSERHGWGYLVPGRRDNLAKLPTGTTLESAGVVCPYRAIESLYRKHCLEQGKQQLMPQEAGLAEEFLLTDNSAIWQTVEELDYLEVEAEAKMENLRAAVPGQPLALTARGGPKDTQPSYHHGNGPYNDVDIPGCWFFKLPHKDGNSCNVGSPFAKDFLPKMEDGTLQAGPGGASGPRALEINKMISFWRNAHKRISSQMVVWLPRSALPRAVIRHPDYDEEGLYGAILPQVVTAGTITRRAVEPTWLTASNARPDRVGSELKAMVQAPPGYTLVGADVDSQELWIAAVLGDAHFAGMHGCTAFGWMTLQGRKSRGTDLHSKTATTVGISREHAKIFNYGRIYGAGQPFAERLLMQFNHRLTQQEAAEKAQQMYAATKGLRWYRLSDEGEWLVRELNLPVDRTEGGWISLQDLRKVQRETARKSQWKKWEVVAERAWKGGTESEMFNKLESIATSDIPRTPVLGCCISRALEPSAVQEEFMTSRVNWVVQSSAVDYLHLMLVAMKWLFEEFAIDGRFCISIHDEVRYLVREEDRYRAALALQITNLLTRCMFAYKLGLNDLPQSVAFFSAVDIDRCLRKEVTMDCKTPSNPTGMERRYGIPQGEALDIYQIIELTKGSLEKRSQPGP

Row | SMILES | persistence of anti-HIV activity after drug removal (HIV; compared with the other thymidine analogs) | improved potency as compared to stavudine (d4T) (HIV; relative to stavudine (d4T)) | in vitro toxicity, including effects on mtDNA (mtDNA; as compared to stavudine (d4T)) | cellular and mitochondrial toxicity (mtDNA; compared with stavudine (d4T)) | increase in affinity to RT (Reverse Transcriptase) [1] | interactions with mtDNA pol γ (mtDNA pol γ)
1 | C#C[C@@]1(CO)C=C[C@H](n2cc(C)c(=O)[nH]c2=O)O1 [Festinavir, 2′,3′-didehydro-3′-deoxy-4′-ethynylthymidine] | more persistent anti-HIV activity after drug removal | 5-10 fold | reduced in vitro toxicity | lower cellular and mitochondrial toxicity |  | 
2 | C#C[C@@]1(COP(=O)(O)OP(=O)(O)OP(=O)(O)O)C=C[C@H](n2cc(C)c(=O)[nH]c2=O)O1 [4′-Ed4T triphosphate] |  |  |  |  | approximately 5 fold | reduces the interactions with mtDNA pol γ
